Where two headings read alike, the source gives them in different places.
How the values were obtained:
[1] = molecular target: T1, extracellular domain (ECD, D1–D7) of VEGFR1 (Homo sapiens, UniProt P17948); experiment: Chemiluminescent competition (displacement) assay: biotinylated VEGF165 (VEGF-A) vs peptide on coated VEGFR1; format: binding; details: for % of Displacement, 100 μM: biotinylated VEGF-A (131 pM btVEGF165) displaced by 100 μM peptide on VEGFR1 ECD (D1–D7), PBS 1% DMSO, 3 h 37 °C; for % of Displacement, 100 μM / % of Displacement, 30 μM: chemiluminescence; for % of Displacement, 100 μM / % of Displacement, 30 μM / IC50: three experiments in triplicate; for % of Displacement, 30 μM + EDTA: biotinylated VEGF-A displaced by 30 μM peptide in the presence of EDTA on VEGFR1 ECD (D1–D7), to avoid false positives from metals or aggregation; for % of Displacement, 30 μM: biotinylated VEGF-A displaced by 30 μM peptide on VEGFR1 ECD (D1–D7); for IC50: dose–response displacement assay on VEGFR1, log(inhibitor) vs. response fit, GraphPad Prism, read-out: IC50 (95% Confident Interval), relative inhibitory concentration 50
T1 construct: VEGFR-1 D1-D7 (ECD domain)/Fc Chimera; purchased Bio-techne R&D, Abingdon, UK
Experimental: The binding studies were performed on VEGF isoform VEGF-A (VEGF165) that is the most commonly involved in pathological angiogenesis. Compounds were first evaluated for their ability to displace biotinylated VEGF-A at two different doses, 30 and 100 μM (Table 2). A chemiluminescent assay, relying on competition between tested compounds and biotinylated VEGF-A for binding to the extracellular domain of recombinant VEGFR1, was used.
As described by Muller Y. A. et al., the surface of white high-binding 96-well microplate (Corning Life Sciences, Amsterdam, The Netherlands) was coated with 100 μL of phosphate-buffered saline solution (PBS, pH 7.4) containing 200 ng/mL of VEGFR-1 D1-D7 (ECD domain)/Fc Chimera or 150 ng/mL of VEGFR1 D1-D3/Fc chimera (Bio-techne R&D, Abingdon, UK) and incubated at 4 °C overnight. After three washes with 250 μL of PBS 0.1%, (v/v) tween 20 (buffer A), the plate was blocked by 200 μL of PBS with 3% (w/v) of BSA and stirred at 37 °C for 2 h. The plate was washed three times with buffer A. Then, 100 μL of a solution containing 131 pM of btVEGF165 (Bio-techne, R&D, Abingdon, UK) and the tested compounds at various concentration diluted in PBS containing 1% DMSO were added in each well. After 3 h stirring at 37 °C, the plate was washed four times with buffer A and 100 μL of streptavidin-horseradish peroxidase (Amersham Biosciences, Little Chalfont, UK) diluted at 1:8000 in PBS containing 0.1% (v/v) Tween 20 and 0.3% (w/v) BSA were added per well. After 1 h of incubation at 37 °C under obscurity and stirring, the plate was washed five times with 250 μL of buffer A and 100 μL of SuperSignal West Pico chemiluminescent substrate (Pierce, Appleton, WI, USA) were added. The remaining bt-VEGF165 was detected by chemiluminescence, which was quantified. The percentages of btVEGF165 displacement were calculated by the following formula: percentage of displacement = 100 × [1 − (S − NS)/(MS − NS)], where S is the signal measured, NS is the nonspecific binding signal and MS is the maximum binding signal observed with btVEGF165 without compounds tested. […] Each experiment was performed three times in triplicate.

[2] = molecular target: T1, extracellular domain (ECD, D1–D7) of VEGFR1; details: cited from earlier work

T1 sequence (P17948 27-758 limits assumed): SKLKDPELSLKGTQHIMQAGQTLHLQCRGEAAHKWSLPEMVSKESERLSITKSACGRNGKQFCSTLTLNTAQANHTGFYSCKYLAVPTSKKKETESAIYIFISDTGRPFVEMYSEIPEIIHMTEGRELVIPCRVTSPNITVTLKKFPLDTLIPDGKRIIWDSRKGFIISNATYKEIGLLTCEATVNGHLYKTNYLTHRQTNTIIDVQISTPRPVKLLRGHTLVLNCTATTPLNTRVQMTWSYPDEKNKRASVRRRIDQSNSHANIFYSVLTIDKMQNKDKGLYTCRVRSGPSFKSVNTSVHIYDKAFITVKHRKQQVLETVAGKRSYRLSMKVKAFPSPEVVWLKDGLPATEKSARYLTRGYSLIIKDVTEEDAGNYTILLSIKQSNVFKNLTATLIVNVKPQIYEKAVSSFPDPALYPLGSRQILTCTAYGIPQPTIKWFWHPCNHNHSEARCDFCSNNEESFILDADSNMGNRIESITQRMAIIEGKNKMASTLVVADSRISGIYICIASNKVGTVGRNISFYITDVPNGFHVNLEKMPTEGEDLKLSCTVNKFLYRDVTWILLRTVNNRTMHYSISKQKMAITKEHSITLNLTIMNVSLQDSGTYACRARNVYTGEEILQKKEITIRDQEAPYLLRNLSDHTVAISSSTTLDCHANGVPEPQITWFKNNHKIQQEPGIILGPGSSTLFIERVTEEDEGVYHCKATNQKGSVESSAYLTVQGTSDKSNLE

| % of Displacement, 100 μM [1] [%] | % of Displacement, 30 μM + EDTA [1] [%] | % of Displacement, 30 μM [1] [%] | IC50 [1] [µM] | Substance | IC50 ([2]; displacement of biotinylated VEGF165 from VEGFR1 ECD, previous study, read-out: IC50 (relative inhibitory concentration 50)) [µM] | % of Displacement, 100 μM ([2]; percentage of biotinylated VEGF165 displaced by 100 μM peptide on whole extracellular domain (ECD, D1–D7) of VEGFR1, previously described peptides) [%] |
| --- | --- | --- | --- | --- | --- | --- |
| 58 ± 1 | 56 ± 6 | 62 ± 4 | 14 | Ac-SSEEYARNWAAFN-NH2 [Compound 14] | – | – |
| 63 ± 2 | 40 ± 7 | 63 ± 1 | 25.6 | Ac-SSEEYARNWAAWN-NH2 [Compound 8] | – | – |
| 55 ± 1 | 53 ± 4 | 66 ± 1 | 48.6 | Ac-SSEEFARNWAAFN-NH2 [Compound 12] | – | – |
| 72 ± 1 | 71 ± 2 | 60 ± 3 | 0.046 | Ac-SSEEFARNWAAIN-NH2 [Compound 29] | – | – |
| 55 ± 1 | 55 ± 4 | 64 ± 3 | 14.5 | Ac-SSEEWARNFAAFN-NH2 [Compound 10] | – | – |
| 62 ± 1 | 44 ± 5 | 71 ± 2 | 21.3 | Ac-SSEEWARNYAAFN-NH2 [Compound 16] | – | – |
| 60 ± 1 | 55 ± 1 | 59 ± 4 | 30.4 | Ac-SSEEFARNIAAYN-NH2 [Compound 32] | – | – |
| – | – | – | – | Ac-KLTWQELYQLKYKGI-NH2 [QK, proangiogenic peptide of D'Andrea and co-workers] | 32 ± 8 | 69 ± 3 |

From article PMC6150346, “Disrupting VEGF–VEGFR1 Interaction: De Novo Designed Linear Helical Peptides to Mimic the VEGF13-25 Fragment” (Molecules : A Journal of Synthetic Chemistry and Natural …, 2017)
